Results: PubChem BioAssay AID624254 (Broad Institute, 2012)
Active and inactive are the calls of the source. How the calls were made is not given here.

Assay: Quorum luxo inducers, light production, v cholerae bh1651 luxod47e, confirmatory dose response (AID 624254)
Conditions: V. cholerae BH1651 luxOD47E, luciferase light induction, 6 h; at 50 µM (top of the series)

| Compound | activation (light increase) |
| --- | --- |
| CN(C1CCCCC1)S(=O)(=O)CCNC(=O)c1ccccc1 | inactive |
| Cc1ccc(C)c(NC(=O)CN(C)C(=O)CCN2C(=O)c3ccccc3C2=O)c1 | inactive |
| Cc1cccc(NC(=O)CSc2nc(=O)n(CCN3CCOCC3)c3c2CCCC3)c1C | inactive |
| O=C(OC1CCN(c2ncc(C(F)(F)F)cc2Cl)CC1)c1ccc(Cl)cc1 | inactive |
| Cc1ccc(C(=O)N(C)CC(=O)Nc2ccc(N3CCOCC3)cc2)s1 | inactive |
| CC(C)NC(=O)c1ccc(-c2cccc(C(F)(F)F)c2)o1 | inactive |
| CN(C)C(=O)CCSc1nnc(-c2ccco2)o1 | inactive |
| CCOC(=O)C1=C(C)NC(SC)=NC1c1ccc(OC)cc1 (stereo not given) | inactive |
| O=C(NCc1nc(-c2ccccc2)no1)c1cccs1 | inactive |
| CCOc1ccc(Nc2ccc3nonc3c2[N+](=O)[O-])cc1 | inactive |
| COc1ccc(Cc2nnc(NC(=O)C3CC(=O)N(c4ccccc4C)C3)s2)cc1OC (stereo not given) | inactive |
| Fc1ccc(NCc2cn3ccccc3n2)cc1 | inactive |
| COc1c(C)cccc1C(=O)Nc1ccc(OCC(=O)N2CCOCC2)cc1C | inactive |
| COc1cc(C(=O)Nc2ccc(NC(=O)C(C)C)nc2)cc(OC)c1OC | inactive |
| Cc1ccccc1OCC(=O)OCC(=O)N1CCCc2ccccc21 | inactive |
| CC1(NC(=O)C23CC4CC(CC(C4)C2)C3)CCS(=O)(=O)C1 (stereo not given) | inactive |
| O=C(c1ccc2c(c1)OCO2)N(Cc1ccco1)C1(C(=O)NC2CCCCC2)CCCCC1 | inactive |
| Cc1ccc(/C=C/C(=O)OCC(=O)NCCc2ccc(S(N)(=O)=O)cc2)o1 | inactive |
| COc1cc(C2N(c3ccccn3)C(=O)C3CCCN32)cc(OC)c1OC (stereo not given) | inactive |
| CC12CCC(=O)N1C(C(=O)NNC(=O)COc1ccc(Br)cc1)CS2 (stereo not given) | inactive |
| CCCn1nnnc1NCc1ccc(OC)cc1 | inactive |
| COC(=O)c1nnn(-c2nonc2N)c1CSc1nc2ccccc2s1 | inactive |
| CCCCn1c(=O)[nH]c(=O)c2c1nc(COc1ccc(C#N)cc1)n2CCC | inactive |

| Compound | activation (light increase) |
| --- | --- |
| CCCC(=O)NC1CCCc2c1cnn2-c1ccc(C)c(C)c1 (stereo not given) | inactive |
| COc1ccc(Cc2nn[nH]n2)cc1 | inactive |
| CCN(CC)c1ccc(CNc2nnnn2C)cc1 | inactive |
| CCN(CC(=O)Nc1c(F)cccc1F)C(=O)c1ccc(C)c(S(=O)(=O)N2CCCCC2)c1 | inactive |
| CCCOc1ccc(NS(=O)(=O)c2cn(C)cn2)cc1 | inactive |
| Cc1cccc(OC(C)C(=O)NC2CCS(=O)(=O)C2)c1C (stereo not given) | inactive |
| O=C(CN1CCC(O)(c2cccc(C(F)(F)F)c2)CC1)NCCc1ccccc1 | inactive |
| CCOC(=O)c1c(NC(=O)c2cccs2)sc(C)c1CC | inactive |
| COC(C(=O)Nc1ccccc1C(=O)N1CCOCC1)c1ccccc1 (stereo not given) | inactive |
| CCCCN(C)CCNC(=O)c1ccc2c(c1)NC(=O)C(N1CCCCC1)S2 (stereo not given) | inactive |
| Cc1ccc(Oc2nccc(-c3ccc(Cl)cc3)n2)cc1 | inactive |
| Cc1cc(OC(F)F)ccc1NC(=S)NCCc1ccccc1 | inactive |
| O=c1c2cc(Br)ccc2nc(-c2cccc(C(F)(F)F)c2)n1O | inactive |
| CN(C)C(=O)c1ccccc1NS(=O)(=O)c1cn(C)cn1 | inactive |
| COc1ccc(C(=O)COC(=O)c2cccc(-n3cnnn3)c2)c(OC)c1 | inactive |
| Cc1ccc(C)c(S(=O)(=O)Nc2ccc(-n3cnnn3)cc2)c1 | inactive |
| CCCOC(=O)c1ccc(NC(=O)CCC(=O)OCC)cc1 | inactive |
| CN(Cc1cn[nH]c1-c1cc2ccccc2o1)CC1CCOCC1 | inactive |
| CCOC(=O)c1sc2cc([N+](=O)[O-])cc(SCCO)c2c1N | inactive |
| Cn1cnc(S(=O)(=O)Nc2ccc(F)cc2)c1 | inactive |
| COc1ccc(S(=O)(=O)Nc2ccc(S(=O)(=O)N3CCOCC3)cc2)cc1C | inactive |
| O=C(COC(=O)/C=C/c1cccc(F)c1)NC1CCCC1 | inactive |
| N#Cc1ccccc1NC(=O)CNc1ccccc1N1CCCCC1 | inactive |

| Compound | activation (light increase) |
| --- | --- |
| COCCSc1ccccc1C(=O)Nc1nnc(COC)s1 | inactive |
| COc1ccc(-c2nnn(CC(=O)c3ccc4c(c3)OCCO4)n2)cc1OC | inactive |
| O=C(NCC1CCCO1)C1CCN(C(=O)c2ccc(Cl)cc2)CC1 (stereo not given) | inactive |
| Cc1ccc(Oc2ccc(S(=O)(=O)N3CCOCC3)cc2C(N)=O)c(-n2nc3ccccc3n2)c1 | inactive |
| CCC(O)(CCN1CCCCC1)c1ccccc1 (stereo not given) | inactive |
| CC(=O)C(CC(=O)N1CCCc2ccccc21)C(=O)Nc1ccc(F)cc1 (stereo not given) | inactive |
| Cn1cnnc1SCCOc1ccc(Cl)cc1 | inactive |
| O=C(NCc1ccccc1F)C(=O)NCC1CCCN1S(=O)(=O)c1ccccc1 (stereo not given) | inactive |
| O=C(COc1cccc(Cl)c1)Nc1ccccc1N1CCCCC1 | inactive |
| O=C(NCc1ccccn1)c1c(O)c2c([nH]c1=O)CCCC2 | inactive |
| O=C(NCc1ccc2c(c1)OCO2)C1CCCN1C(=O)Nc1cccc(Cl)c1 (stereo not given) | inactive |
| Cc1ccc(C)n1-c1sc2c(c1C#N)CCC(C)C2 (stereo not given) | inactive |
| COc1ccc2[nH]c(=O)c(CNc3ccc(C)c(C)c3)cc2c1 | inactive |
| Cc1ccc(C)c(N(C(=O)Cn2nnc(-c3cccs3)n2)C(C(=O)NC2CC2)c2ccc(C)o2)c1 (stereo not given) | inactive |
| CCN(CC)C(=O)c1sc(NC(=O)Cc2ccc(OC)cc2)c(C#N)c1C | inactive |
| O=C(Nc1cccc(Cl)c1)Nc1ccc(Cl)cn1 | inactive |
| COc1ccc(OC)c(NC(=O)Nc2cccc(Cn3cccn3)c2)c1 | inactive |
| CCN(CC(=O)Nc1c(F)cccc1F)C(=O)C1CC(=O)N(c2ccccc2OC)C1 (stereo not given) | inactive |
| CCCCCn1c(SCC(=O)OCC)nc2cc(C(=O)N3CCC(C(N)=O)CC3)ccc2c1=O | inactive |
| C=CCn1c(-c2cc(OC)cc(OC)c2)n[nH]c1=S | inactive |
| COc1ccc(-c2ccc(-c3nnc(Cc4ccc(OC)c(OC)c4)o3)cc2)cc1 | inactive |
| O=C(Nc1nnc(C2CC2)s1)c1cccc(S(=O)(=O)N2CCc3ccccc32)c1 | inactive |
| CCCCNC(=O)COC(=O)c1ccc(N(C)C)cc1 | inactive |

| Compound | activation (light increase) |
| --- | --- |
| COC(=O)c1cc(C(=O)OCC(=O)c2ccc3c(c2)NC(=O)CO3)cc([N+](=O)[O-])c1 | inactive |
| COC(=O)C1CCN(C(=O)CN(C)Cc2ccc(C(C)(C)C)cc2)CC1 | inactive |
| CCCCNC(=O)Nc1cc(C)on1 | inactive |
| C=CCN1C(=O)c2ccc(C(=O)N(CC)CC(=O)Nc3cc(Cl)ccc3C)cc2C1=O | inactive |
| CCCn1nnnc1NCc1ccc(N(CC)CC)cc1 | inactive |
| Cc1ccc(NS(=O)(=O)c2cn(C)cn2)cc1 | inactive |
| COc1ccccc1NC(=O)COC(=O)c1ccc2c(c1)OCCO2 | inactive |
| C=CCNC(=O)CCCOc1ccc(C)cc1 | inactive |
| CCC(=O)c1coc2ccc(O)cc12 | inactive |
| Cc1cccc(N(CC(N)=O)C2SC(=O)N(c3ccccc3)C2=O)c1 (stereo not given) | inactive |
| Cc1cccc(C(=O)OCC(=O)NCC(C)C)c1O | inactive |
| O=C(NCC(F)(F)F)Nc1ncccn1 | inactive |
| COCc1nnc(NS(=O)(=O)c2ccc(Br)cc2)s1 | inactive |
| Cc1cc(C(C)(C)C)oc1C(=O)OCC(=O)NC1CCCCC1 | inactive |
| CC(C)CNC(=O)COC(=O)/C=C/c1ccco1 | inactive |
| CCCn1nnnc1SCC(=O)c1ccc2c(c1)OCCO2 | inactive |
| O=C(O)c1cc(CN2CCOCC2)oc1-c1ccccc1 | inactive |
| Cn1cccc1C(=O)OCc1cc(-c2ccco2)on1 | inactive |
| COc1ccccc1CNC(=O)COC(=O)c1n[nH]c2ccccc12 | inactive |
| Cc1cccc(N2CCN(C(=O)Cn3cccc3C(=O)c3ccccc3)CC2)c1C | inactive |
| Cc1ccc(C(=O)OCC(=O)NCCNC(=O)COC(=O)c2ccc(C)s2)s1 | inactive |
